Assay results as given in patent publication US11111238B2, “Coumarin derivatives, processes for their preparation and uses thereof for the treatment of cancer” (Lead Discovery Center GmbH, priority 2017, dated 2021).

What follows are compounds tested against mitochondrial RNA-polymerase (POLRMT) (Mus musculus, UniProt Q8BKF1) (assay: Homogeneous TR-FRET assay for mitochondrial transcription activity). Settings: homogeneous TR-FRET assay according to Example 4; activity class.
Chain of mitochondrial RNA-polymerase (POLRMT) (Q8BKF1 42-1207): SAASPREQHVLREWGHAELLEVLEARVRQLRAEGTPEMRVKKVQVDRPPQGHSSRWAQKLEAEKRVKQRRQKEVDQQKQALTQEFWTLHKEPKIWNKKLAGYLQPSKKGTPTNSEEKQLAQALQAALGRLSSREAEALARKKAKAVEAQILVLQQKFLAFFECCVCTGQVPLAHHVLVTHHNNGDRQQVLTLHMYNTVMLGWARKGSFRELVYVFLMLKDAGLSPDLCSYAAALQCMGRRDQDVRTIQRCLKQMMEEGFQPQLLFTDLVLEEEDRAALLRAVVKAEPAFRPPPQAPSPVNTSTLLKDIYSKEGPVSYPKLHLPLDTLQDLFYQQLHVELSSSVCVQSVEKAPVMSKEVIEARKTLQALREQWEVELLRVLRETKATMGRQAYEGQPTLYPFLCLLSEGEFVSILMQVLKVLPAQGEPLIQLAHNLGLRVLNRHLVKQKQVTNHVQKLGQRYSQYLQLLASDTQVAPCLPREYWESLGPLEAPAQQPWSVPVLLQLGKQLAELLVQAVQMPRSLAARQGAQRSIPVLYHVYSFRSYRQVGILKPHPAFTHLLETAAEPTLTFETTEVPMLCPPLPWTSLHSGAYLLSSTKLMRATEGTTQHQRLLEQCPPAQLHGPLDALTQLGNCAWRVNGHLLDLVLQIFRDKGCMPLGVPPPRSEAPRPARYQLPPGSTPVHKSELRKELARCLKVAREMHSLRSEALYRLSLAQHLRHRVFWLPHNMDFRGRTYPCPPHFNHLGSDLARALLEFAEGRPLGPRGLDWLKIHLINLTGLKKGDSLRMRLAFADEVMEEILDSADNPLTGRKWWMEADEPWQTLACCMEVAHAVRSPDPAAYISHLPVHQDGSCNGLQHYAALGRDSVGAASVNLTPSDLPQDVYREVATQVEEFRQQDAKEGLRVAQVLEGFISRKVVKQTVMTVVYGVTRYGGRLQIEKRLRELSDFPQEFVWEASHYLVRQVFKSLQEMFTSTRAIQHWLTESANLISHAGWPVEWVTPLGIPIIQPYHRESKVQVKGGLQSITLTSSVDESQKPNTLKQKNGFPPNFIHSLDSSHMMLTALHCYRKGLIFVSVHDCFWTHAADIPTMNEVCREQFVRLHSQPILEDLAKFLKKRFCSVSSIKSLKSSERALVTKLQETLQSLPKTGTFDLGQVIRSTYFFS
Format: biochemical
Text: The TR-FRET assay was basically conducted as described in WO2016/193,231A1, especially as described in example 1 (hereby incorporated by reference). With respect to the background of the mitochondrial transcription it is referred to Falkenberg et al. (2002) and Posse et al. (Posse et al., 2015). The method monitors the activity of mitochondrial RNA-polymerase via detection of the formation of its product, a 407 bp long RNA sequence. Detection of the product is facilitated by hybridization of two DNA-oligonucleotide probes to specific and adjacent sequences within the RNA product sequence. Upon annealing of the probes, two fluorophores that are coupled directly to an acceptor nucleotide probe (ATT0647, 5′) or introduced via a coupled streptavidin interacting with a biotinylated donor nucleotide probe on the other side (Europium cryptate, 3′) are brought into sufficient proximity to serve as a fluorescence-donor-acceptor pair as generally described in Walters and Namchuk (2003). Thus, a FRET signal at 665 nm is generated upon excitation at 340 nm.
Briefly, the protocol described here was applied for screening and activity determination in a low-volume 384-well microtiter plate with non-binding surface. For high-throughput application in the 1536-well microtiter plate format, volumes of the reagent mixes were adjusted, maintaining the volumetric ratio. Proteins POLRMT (NM_172551.3), TFAM (NM_009360.4) and TFB2 M (NM_008249.4) were diluted from their stocks to working concentrations of 150 nM, 1.8 μM and 330 nM respectively, in a dilution buffer containing 100 mM Tris-HCl pH 8.0, 200 mM NaCl, 10% (v/v) glycerole, 2 mM glutathione (GSH), 0.5 mM EDTA and 0.1 mg/mL BSA. Protein dilutions and template DNA, comprising a pUC18 plasmid encoding the mitochondrial light strand promoter, restriction linearized proximal to the promoter 3′-end (pUC-LSP), were mixed at the twofold final assay-concentration in a reaction buffer, containing 10 mM Tris-HCl pH 7.5, 10 mM MgCl2, 40 mM NaCl, 2 mM GSH, 0.01% (w/v) Tween-20 and 0.1 mg/mL BSA.
5 μL of this mix were dispensed, depending on the chosen microtiter plate format, using multi-channel pipettes or a Multidrop® dispenser (Thermo Fisher Scientific, Waltham Mass.) into the wells of a microtiter plate and incubated at room temperature (RT) for 10 min. Chemical compounds under scrutiny in the assay were applied using contact-free acoustic droplet-dispensing (Echo520® Labcyte Inc., Sunnyvale Calif.) from 10 mM compound stocks in 100% DMSO, to a final concentration of 10 μM or in serial dilution series of the required concentration range. Equal amounts of DMSO without any compound were added to positive control samples, followed by an incubation step at RT for 10 min.
The enzymatic reaction was started by the addition of 5 μL of a mix of […] in reaction buffer to a final concentration of 500 μM each. No nucleotide mix was added to negative control samples. The content of the wells was mixed using a VarioTeleshaker™ (Thermo Fisher Scientific, Waltham Mass.) at 1,500 rpm for 45 sec after which the microtiter plate was centrifuged at 500×g for 1 min. The samples were incubated for 2 h at RT with humidity control to avoid evaporation. The detection reagents were prepared in a buffer that was composed, such that the enzymatic reaction was terminated due to chelating of Mg-ions and increased ionic strength, containing 50 mM Tris-HCl pH 7.5, 700 mM NaCl, 20 mM EDTA, and 0.01% (w/v) Tween-20. Importantly Eu-cryptate-coupled streptavidin had to be pre-incubated with a 100-fold molar excess of a random sequence oligonucleotide for 10 min at RT in the dark to block unspecific binding of single stranded RNA to the protein. Subsequently, the blocked streptavidin(—Eu) was mixed with the DNA-probes on ice and kept away from light until use. […]
`COC(=O)C1CN(C(=O)[C@@H](C)Oc2ccc3c(-c4ccc(F)cc4Cl)cc(=O)oc3c2)CCN1C` (mixture of isomers) [Compound 137, methyl 1-methyl-4-[rac-(2R)-2-[4-(2-chloro-4-fluoro-phenyl)-2-oxo-chromen-7-yl]oxypropanoyl]piperazine-2-carboxylate] showed an IC50 of 100 to 1000 nM. Compound `CC(Oc1ccc2c(-c3ccccc3Cl)cc(=O)oc2n1)C(=O)N1CCC[C@H](C(=O)OC(C)(C)C)C1` (mixture of isomers) [Compound 171, tert-butyl rac-(3S)-1-[2-[4-(2-chlorophenyl)-2-oxo-pyrano[2,3-b]pyridin-7-yl]oxypropanoyl]piperidine-3-carboxylate] has an IC50 of 100 to 1000 nM. `Cc1ccccc1-c1cc(=O)oc2cc(OC(C)C(=O)N3CCC[C@H](C(=O)O)C3)ccc12` (stereo partly drawn) [Compound 3, (3S)-1-[2-[4-(o-tolyl)-2-oxo-chromen-7-yl]oxypropanoyl]piperidine-3-carboxylic acid] gave an IC50 of under 20 nM. `Cc1ccccc1-c1cc(=O)oc2cc(OC(C)C(=O)Nc3ccccn3)ccc12` (centres unmarked) [Compound 4, 2-[4-(o-tolyl)-2-oxo-chromen-7-yl]oxy-N-(2-pyridyl)propanamide] was tested, and the IC50 was under 20 nM. For `Cc1ccccc1-c1cc(=O)oc2cc(OC(C)C(=O)N3CCCC3)ccc12` (centres unmarked) [Compound 5, 7-(1-methyl-2-oxo-2-pyrrolidin-1-yl-ethoxy)-4-(o-tolyl)chromen-2-one], the IC50 was under 20 nM. `COC(=O)C1CCCN(C(=O)C(C)Oc2ccc3c(-c4ccccc4C)cc(=O)oc3c2)C1` (centres unmarked) [Compound 6, methyl 1-[2-[4-(o-tolyl)-2-oxo-chromen-7-yl]oxypropanoyl]piperidine-3-carboxylate] was tested, and the IC50 was under 20 nM. With `COC(=O)C1CCCN(C(=O)C(C)Oc2ccc3c(-c4ccccc4Cl)cc(=O)oc3c2)C1` (centres unmarked) [Compound 7, methyl 1-[2-[4-(2-chlorophenyl)-2-oxo-chromen-7-yl]oxypropanoyl]piperidine-3-carboxylate] the IC50 was under 20 nM. `Cc1ccccc1-c1cc(=O)oc2cc(OC(C)C(=O)N3CCCC(S(=O)(=O)O)C3)ccc12` (centres unmarked) [Compound 10, 1-[2-[4-(o-tolyl)-2-oxo-chromen-7-yl]oxypropanoyl]piperidine-3-sulfonic acid] showed an IC50 of under 20 nM. In the case of `CC(Oc1ccc2c(-c3ccccc3Cl)cc(=O)oc2c1)C(=O)N1CCCC(S(=O)(=O)O)C1` (centres unmarked) [Compound 11, 1-[2-[4-(2-chlorophenyl)-2-oxo-chromen-7-yl]oxypropanoyl]piperidine-3-sulfonic acid], the IC50 is reported as under 20 nM. `CC(Oc1ccc2c(-c3ccccc3Cl)cc(=O)oc2c1)C(=O)N1CCCC1` (centres unmarked) [Compound 13, 4-(2-chlorophenyl)-7-(1-methyl-2-oxo-2-pyrrolidin-1-yl-ethoxy)chromen-2-one] was tested, and the IC50 was under 20 nM. For `CCOC(=O)[C@H]1CCCN(C(=O)C(C)Oc2ccc3c(-c4ccccc4Cl)cc(=O)oc3c2)C1` (stereo partly drawn) [Compound 16, ethyl (3S)-1-[2-[4-(2-chlorophenyl)-2-oxo-chromen-7-yl]oxypropanoyl]piperidine-3-carboxylate], the IC50 was under 20 nM. In the case of `CCOC(=O)[C@H]1CCCN(C(=O)C(C)Oc2ccc3c(-c4ccccc4C)cc(=O)oc3c2)C1` (stereo partly drawn) [Compound 17, ethyl (3S)-1-[2-[4-(o-tolyl)-2-oxo-chromen-7-yl]oxypropanoyl]piperidine-3-carboxylate], the IC50 is reported as under 20 nM. `Cc1ccccc1-c1cc(=O)oc2cc(OC(C)C(=O)Nc3ccc(CCO)cc3)ccc12` (centres unmarked) [Compound 19, N-[4-(2-hydroxyethyl)phenyl]-2-[4-(o-tolyl)-2-oxo-chromen-7-yl]oxy-propanamide] showed an IC50 of under 20 nM. With `CNS(=O)(=O)C1CCCN(C(=O)C(C)Oc2ccc3c(-c4ccccc4Cl)cc(=O)oc3c2)C1` (centres unmarked) [Compound 20, 1-[2-[4-(2-chlorophenyl)-2-oxo-chromen-7-yl]oxypropanoyl]-N-methyl-piperidine-3-sulfonamide] the IC50 was under 20 nM. `Cc1ccccc1-c1cc(=O)oc2cc(OC(C)C(=O)N3CC[C@H](C(=O)O)C3)ccc12` (stereo partly drawn) [Compound 22, (3S)-1-[2-[4-(o-tolyl)-2-oxo-chromen-7-yl]oxypropanoyl]pyrrolidine-3-carboxylic acid] was tested, and the IC50 was under 20 nM. In the case of `C[C@@H](Oc1ccc2c(-c3ccccc3Cl)cc(=O)oc2c1)C(=O)N1CCC[C@H](C#N)C1` [Compound 28, (3S)-1-[(2R)-2-[4-(2-chlorophenyl)-2-oxo-chromen-7-yl]oxypropanoyl]piperidine-3-carbonitrile], the IC50 is reported as under 20 nM. Work on `C[C@@H](Oc1ccc2c(-c3ccccc3Cl)cc(=O)oc2c1)C(=O)N1CC[C@H](C(=O)O)C1` [Compound 29, (3S)-1-[2-[4-(2-chlorophenyl)-2-oxo-chromen-7-yl]oxypropanoyl]pyrrolidine-3-carboxylic acid] yielded an IC50 of under 20 nM. In the case of `Cc1ccccc1-c1cc(=O)oc2cc(O[C@H](C)C(=O)N3CCCCC3)ccc12` [Compound 30, 7-[(1R)-1-methyl-2-oxo-2-(1-piperidyl)ethoxy]-4-(o-tolyl)chromen-2-one], the IC50 is reported as under 20 nM. `CC(Oc1ccc2c(-c3ccccc3Cl)cc(=O)oc2c1)C(=O)Nc1ccccn1` (centres unmarked) [Compound 31, 2-[4-(2-chlorophenyl)-2-oxo-chromen-7-yl]oxy-N-(2-pyridyl)propanamide] showed an IC50 of under 20 nM. In the case of `Cc1ccccc1-c1cc(=O)oc2cc(O[C@H](C)C(=O)N3CCC[C@H](C#N)C3)ccc12` [Compound 32, (3S)-1-[(2R)-2-[4-(o-tolyl)-2-oxo-chromen-7-yl]oxypropanoyl]piperidine-3-carbonitrile], the IC50 is reported as under 20 nM. `C[C@@H](Oc1ccc2c(-c3ccccc3Cl)cc(=O)oc2c1)C(=O)N1CCCCC1` [Compound 34, 4-(2-chlorophenyl)-7-[(1R)-1-methyl-2-oxo-2-(1-piperidyl)ethoxy]chromen-2-one] showed an IC50 of under 20 nM. With `CC(Oc1ccc2c(-c3ccccc3Cl)cc(=O)oc2c1)C(=O)Nc1ccc(CCO)cc1` (centres unmarked) [Compound 35, 2-[4-(2-chlorophenyl)-2-oxo-chromen-7-yl]oxy-N-[4-(2-hydroxyethyl)phenyl]propanamide] the IC50 was under 20 nM. Compound `CC(Oc1ccc2c(-c3ccccc3Cl)cc(=O)oc2c1)C(=O)N1CCCC(c2nn[nH]n2)C1` (centres unmarked) [Compound 39, 4-(2-chlorophenyl)-7-[1-methyl-2-oxo-2-[3-(2H-tetrazol-5-yl)-1-piperidyl]ethoxy]chromen-2-one] has an IC50 of under 20 nM. `CCOC(=O)C(C)Oc1ccc2c(-c3ccccc3Cl)cc(=O)oc2c1` (centres unmarked) [Compound 40, ethyl 2-[4-(2-chlorophenyl)-2-oxo-chromen-7-yl]oxypropanoate] was tested, and the IC50 was under 20 nM. In the case of `Cc1ccccc1-c1cc(=O)oc2cc(OC(C)C(=O)N3CCCC(C#N)C3)ccc12` (centres unmarked) [Compound 41, 1-[2-[4-(o-tolyl)-2-oxo-chromen-7-yl]oxypropanoyl]piperidine-3-carbonitrile], the IC50 is reported as under 20 nM. `Cc1ccccc1-c1cc(=O)oc2cc(OC(C)C(=O)N3CCCC(C)(C(=O)O)C3)ccc12` (centres unmarked) [Compound 43, 3-methyl-1-[2-[4-(o-tolyl)-2-oxo-chromen-7-yl]oxypropanoyl]piperidine-3-carboxylic acid] was tested, and the IC50 was under 20 nM. With `Cc1ccccc1-c1cc(=O)oc2cc(O[C@H](C)C(=O)N(C)C)ccc12` [Compound 44, (2R)-N,N-dimethyl-2-[4-(o-tolyl)-2-oxo-chromen-7-yl]oxy-propanamide] the IC50 was under 20 nM. With `C[C@@H](Oc1ccc2c(-c3ccccc3Cl)cc(=O)oc2c1)C(=O)N(C)C` [Compound 45, (2R)-2-[4-(2-chlorophenyl)-2-oxo-chromen-7-yl]oxy-N,N-dimethyl-propanamide] the IC50 was under 20 nM. With `CC(Oc1ccc2c(-c3ccccc3Cl)cc(=O)oc2c1)C(=O)N1CCC[C@@H](C(=O)O)C1` (stereo partly drawn) [Compound 46, (3R)-1-[2-[4-(2-chlorophenyl)-2-oxo-chromen-7-yl]oxypropanoyl]piperidine-3-carboxylic acid] the IC50 was under 20 nM.
